Assay results published in patent publication US12172995B2, “Substituted indole and indazole compounds” (BRISTOL-MYERS SQUIBB COMPANY, priority 2018, dated 2024).

Key:
Assay type in all cases: cell-based
[1] = target: T1, human TLR8 (Homo sapiens, UniProt Q9NR97); assay: TLR8 inhibition reporter assay (HEK-Blue SEAP); conditions: HEK-Blue cells overexpressing human TLR8, stimulated with R848 15.9 μM, 22 hour incubation
T1 construct: host or cells: HEK-Blue cells
T1 sequence (Q9NR97 27-1041): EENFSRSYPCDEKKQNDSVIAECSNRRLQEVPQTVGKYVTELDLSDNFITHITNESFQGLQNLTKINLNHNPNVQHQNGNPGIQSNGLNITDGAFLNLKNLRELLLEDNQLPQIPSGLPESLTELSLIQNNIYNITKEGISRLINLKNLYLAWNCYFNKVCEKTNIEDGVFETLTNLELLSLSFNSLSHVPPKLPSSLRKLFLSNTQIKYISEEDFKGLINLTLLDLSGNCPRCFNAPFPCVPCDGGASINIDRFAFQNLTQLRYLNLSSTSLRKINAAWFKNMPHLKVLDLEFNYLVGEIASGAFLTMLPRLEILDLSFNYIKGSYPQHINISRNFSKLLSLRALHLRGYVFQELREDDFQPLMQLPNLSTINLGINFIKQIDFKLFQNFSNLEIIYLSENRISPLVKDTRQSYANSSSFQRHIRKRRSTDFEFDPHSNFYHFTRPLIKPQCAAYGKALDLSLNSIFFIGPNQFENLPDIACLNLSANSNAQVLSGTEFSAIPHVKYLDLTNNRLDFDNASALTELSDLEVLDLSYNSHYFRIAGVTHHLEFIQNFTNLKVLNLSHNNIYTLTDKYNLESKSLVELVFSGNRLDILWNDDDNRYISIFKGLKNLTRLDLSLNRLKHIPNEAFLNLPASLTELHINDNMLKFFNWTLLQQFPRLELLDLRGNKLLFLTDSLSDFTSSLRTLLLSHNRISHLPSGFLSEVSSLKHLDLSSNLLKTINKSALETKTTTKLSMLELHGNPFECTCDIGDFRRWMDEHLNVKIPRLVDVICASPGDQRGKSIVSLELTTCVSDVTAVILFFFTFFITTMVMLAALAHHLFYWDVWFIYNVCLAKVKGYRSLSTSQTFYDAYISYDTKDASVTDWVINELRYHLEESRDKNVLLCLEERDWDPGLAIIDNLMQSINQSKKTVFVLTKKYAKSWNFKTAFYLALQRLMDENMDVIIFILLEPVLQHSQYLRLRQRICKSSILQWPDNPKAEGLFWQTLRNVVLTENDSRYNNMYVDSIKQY
How it was run: (§1)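 Reporter HEK-Blue lines; cpd 0.05 nM–50 μM, 30 min preincubation RT; agonist: TLR7 gardiquimod 7.5 μM, TLR8 R848 15.9 μM, TLR9 ODN2006 5 nM; 22 h 37 °C; SEAP detected colorimetrically; % inhib vs known inhibitor.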

[2] = target: T2, human TLR7 (Homo sapiens, UniProt Q9NYK1); assay: TLR7 inhibition reporter assay (HEK-Blue SEAP); conditions: HEK-Blue cells overexpressing human TLR7, stimulated with gardiquimod 7.5 μM, 22 hour incubation
T2 construct: host or cells: HEK-Blue cells
T2 sequence (Q9NYK1 27-1049): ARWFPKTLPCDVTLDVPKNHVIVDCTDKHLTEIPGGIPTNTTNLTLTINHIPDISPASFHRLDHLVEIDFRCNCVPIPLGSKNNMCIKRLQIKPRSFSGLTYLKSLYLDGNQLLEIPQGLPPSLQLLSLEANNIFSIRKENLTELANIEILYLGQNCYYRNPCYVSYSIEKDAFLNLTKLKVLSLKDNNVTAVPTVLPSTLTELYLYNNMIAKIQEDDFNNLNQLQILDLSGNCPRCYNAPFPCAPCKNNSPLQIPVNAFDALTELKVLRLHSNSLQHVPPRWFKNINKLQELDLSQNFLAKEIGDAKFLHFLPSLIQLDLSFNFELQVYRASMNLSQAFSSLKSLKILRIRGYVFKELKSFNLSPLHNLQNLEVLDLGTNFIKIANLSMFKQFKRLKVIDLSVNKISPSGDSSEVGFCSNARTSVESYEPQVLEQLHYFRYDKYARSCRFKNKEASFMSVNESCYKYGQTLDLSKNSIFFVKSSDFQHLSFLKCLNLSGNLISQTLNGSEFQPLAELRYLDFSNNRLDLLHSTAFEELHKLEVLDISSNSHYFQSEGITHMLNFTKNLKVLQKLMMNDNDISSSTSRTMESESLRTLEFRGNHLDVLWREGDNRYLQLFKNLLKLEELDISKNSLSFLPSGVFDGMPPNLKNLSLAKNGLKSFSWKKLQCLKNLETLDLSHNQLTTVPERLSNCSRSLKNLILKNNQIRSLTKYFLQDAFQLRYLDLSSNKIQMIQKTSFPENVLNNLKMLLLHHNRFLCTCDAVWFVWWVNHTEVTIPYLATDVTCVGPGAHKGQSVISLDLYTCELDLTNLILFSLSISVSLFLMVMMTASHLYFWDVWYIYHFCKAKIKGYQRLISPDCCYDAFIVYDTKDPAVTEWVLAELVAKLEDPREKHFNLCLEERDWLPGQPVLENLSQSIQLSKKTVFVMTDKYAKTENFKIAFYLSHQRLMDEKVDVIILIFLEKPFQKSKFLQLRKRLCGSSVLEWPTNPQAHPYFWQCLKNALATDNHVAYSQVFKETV
How it was run: as §1

[3] = target: T3, human TLR9 (Homo sapiens, UniProt Q9NR96); assay: TLR9 inhibition reporter assay (HEK-Blue SEAP); conditions: HEK-Blue cells overexpressing human TLR9, stimulated with ODN2006 5 nM, 22 hour incubation
T3 construct: host or cells: HEK-Blue cells
T3 sequence (Q9NR96 26-1032): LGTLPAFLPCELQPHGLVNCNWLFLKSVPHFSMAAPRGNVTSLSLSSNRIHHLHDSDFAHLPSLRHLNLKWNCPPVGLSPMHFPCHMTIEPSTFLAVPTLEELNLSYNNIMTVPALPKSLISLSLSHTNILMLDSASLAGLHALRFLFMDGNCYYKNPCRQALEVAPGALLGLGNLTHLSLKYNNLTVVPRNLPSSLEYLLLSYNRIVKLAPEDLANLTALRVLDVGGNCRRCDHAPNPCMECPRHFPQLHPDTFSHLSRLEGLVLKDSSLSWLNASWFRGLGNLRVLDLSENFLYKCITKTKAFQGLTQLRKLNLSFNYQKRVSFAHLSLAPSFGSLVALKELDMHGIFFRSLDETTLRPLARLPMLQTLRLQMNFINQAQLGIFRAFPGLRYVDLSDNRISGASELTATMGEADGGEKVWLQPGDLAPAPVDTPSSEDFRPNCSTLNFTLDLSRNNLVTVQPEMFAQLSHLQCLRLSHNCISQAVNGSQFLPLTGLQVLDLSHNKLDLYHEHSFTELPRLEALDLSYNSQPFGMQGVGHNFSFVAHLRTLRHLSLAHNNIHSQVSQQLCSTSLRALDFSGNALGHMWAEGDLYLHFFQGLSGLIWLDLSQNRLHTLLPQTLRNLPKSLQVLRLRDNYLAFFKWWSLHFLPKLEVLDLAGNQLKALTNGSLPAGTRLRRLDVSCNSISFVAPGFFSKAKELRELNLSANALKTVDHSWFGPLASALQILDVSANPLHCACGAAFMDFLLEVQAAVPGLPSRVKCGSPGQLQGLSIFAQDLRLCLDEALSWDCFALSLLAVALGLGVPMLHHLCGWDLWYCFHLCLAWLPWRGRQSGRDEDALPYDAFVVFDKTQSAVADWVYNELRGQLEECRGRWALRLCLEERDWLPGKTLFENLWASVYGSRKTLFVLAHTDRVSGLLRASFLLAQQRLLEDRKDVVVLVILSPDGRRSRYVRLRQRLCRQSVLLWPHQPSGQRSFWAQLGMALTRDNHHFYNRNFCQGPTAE
How it was run: as §1

SMILES | IC50 [1] | IC50 [2] | IC50 [3]
CCc1cc2c(C3CCC(NCCS(C)(=O)=O)CC3)n[nH]c2cc1-c1cc(C)c2ncnn2c1 (single isomer, unassigned) [Example 100, 4-(5-ethyl-6-(8-methyl-[1,2,4]triazolo[1,5-a]pyridin-6-yl)-1H-indazol-3-yl)-N-(2-(methylsulfonyl)ethyl)cyclohexan-1-amine] | 0.2 nM | 7.5 nM | 17500 nM
COc1ccc(-c2cc3[nH]nc(C4CCCNC4)c3cc2C)cc1OC (stereo not drawn) [Example 62, 6-(3,4-dimethoxyphenyl)-5-methyl-3-(piperidin-3-yl)-1H-indazole] | 5.2 nM | 824 nM | 3200 nM
CCCN1CCC(c2n[nH]c3cc(-c4cc(C)c5ncnn5c4)c(C(C)C)cc23)CC1 [Example 9, 6-(5-isopropyl-3-(1-propylpiperidin-4-yl)-1H-indazol-6-yl)-8-methyl-[1,2,4]triazolo[1,5-a] pyridine] | 0.1 nM | 0.5 nM | 6200 nM
Cc1cc(-c2cc3[nH]nc(C4CCC(N5CC6(COC6)C5)CC4)c3cc2C(C)C)cn2ncnc12 (single isomer, unassigned) [Example 129, 6-(4-(5-isopropyl-6-(8-methyl-[1,2,4]triazolo[1,5-a]pyridin-6-yl)-1H-indazol-3-yl)cyclohexyl)-2-oxa-6-azaspiro[3.3]heptane] | 0.5 nM | 4.1 nM | 7550 nM
Cc1cc2c(C3CCCNC3)n[nH]c2cc1-c1cn(C)c2ncccc12 (stereo not drawn) [Example 47, 5-methyl-6-(1-methyl-1H-pyrrolo[2,3-b]pyridin-3-yl)-3-(piperidin-3-yl)-1H-indazole] | 0.2 nM | 22.9 nM | 2880 nM
Cc1cc2c(C3CCCNC3)n[nH]c2cc1-c1cc(C)c2ncnn2c1 (stereo not drawn) [Example 24, 8-methyl-6-(5-methyl-3-(piperidin-3-yl)-1H-indazol-6-yl)-[1,2,4]triazolo[1,5-a]pyridine] | 1.1 nM | 15.8 nM | 862 nM
Cc1cc(-c2cc(C)c3ncnn3c2)cc2[nH]nc(C3CCC(N(C)C)CC3)c12 (stereo not drawn) [Example 81, N,N-dimethyl-4-(4-methyl-6-(8-methyl-[1,2,4]triazolo[1,5-a]pyridin-6-yl)-1H-indazol-3-yl)cyclohexan-1-amine] | 5.3 nM | 1.3 nM | 1830 nM
Cc1cc(-c2cc(C)c3ncnn3c2)cc2[nH]nc(C3CCCN(CC(=O)N(C)C)C3)c12 (stereo not drawn) [Example 59, N,N-dimethyl-2-(3-(4-methyl-6-(8-methyl-[1,2,4]triazolo[1,5-a]pyridin-6-yl)-1H-indazol-3-yl)piperidin-1-yl)acetamide] | 43.9 nM | 10.5 nM | 3210 nM

The next lines start with the values.

IC50 [1] | IC50 [2] | IC50 [3] | SMILES
0.3 nM | 18.3 nM | 4440 nM | Cc1cc2c(C3CCC(N(C)C4COC4)CC3)n[nH]c2cc1-c1cc(C)c2ncnn2c1 (single isomer, unassigned) [Example 32, N-methyl-N-(4-(5-methyl-6-(8-methyl-[1,2,4]triazolo[1,5-a]pyridin-6-yl)-1H-indazol-3-yl)cyclohexyl)oxetan-3-amine]
19.9 nM | 0.9 nM | 1040 nM | Cc1cc(-c2cc(C)c3ncnn3c2)cc2[nH]cc(C3CCNCC3)c12 [Example 2, 8-methyl-6-(4-methyl-3-(piperidin-4-yl)-1H-indol-6-yl)-[1,2,4]triazolo[1,5-a]pyridine]
4.5 nM | 19.9 nM | 6900 nM | Cc1cc2c(C3CCCN(CC(=O)N(C)C)C3)n[nH]c2cc1-c1cc(C)c2ncnn2c1 (stereo not drawn) [Example 57, N,N-dimethyl-2-(3-(5-methyl-6-(8-methyl-[1,2,4]triazolo[1,5-a]pyridin-6-yl)-1H-indazol-3-yl)piperidin-1-yl)acetamide]
2360 nM | 319 nM | 28200 nM | COc1cc(-c2ccc3c(C(=O)NC4CCNCC4)c[nH]c3c2)cn2ncnc12 [Example 197, 6-(8-methoxy-[1,2,4]triazolo[1,5-a]pyridin-6-yl)-N-(piperidin-4-yl)-1H-indole-3-carboxamide]
0.2 nM | 2.5 nM | 15900 nM | Cc1cc(-c2cc3[nH]nc(C4CCC(N5CC(F)(F)C5)CC4)c3cc2C(C)C)cn2ncnc12 (single isomer, unassigned) [Example 134, 6-(3-(4-(3,3-difluoroazetidin-1-yl)cyclohexyl)-5-isopropyl-1H-indazol-6-yl)-8-methyl-[1,2,4]triazolo[1,5-a]pyridine]
3.3 nM | 12.9 nM | 1500 nM | Cc1cc2c(C3CCNCC3)n[nH]c2cc1-c1cc(C)c2ncnn2c1 [Example 18, 8-methyl-6-(5-methyl-3-(piperidin-4-yl)-1H-indazol-6-yl)-[1,2,4]triazolo[1,5-a]pyridine]
